Laboratory results as given in ChEMBL document CHEMBL3286360, “Tuning the antimicrobial pharmacophore to enable discovery of short lipopeptides with multiple modes of action” (Eur J Med Chem, 2014).
In brackets after ≈: the same amount, converted by molar mass. Activity calls are given as the source filed them. No cut-off for these calls is given here. Where a SMILES comes first, the peptide text is derived from it. The star is where a group is joined. Stearoyl = CCCCCCCCCCCCCCCCCC(=O)*; Myristoyl = CCCCCCCCCCCCCC(=O)*; Decanoyl = CCCCCCCCCC(=O)*

Key:
Escherichia coli [1] = test: Antimicrobial activity against Escherichia coli ATCC 25922 after 17 to 20 hrs by serial dilution method; type: functional
Candida albicans = test: Antimicrobial activity against Candida albicans ATCC 14053 after 17 to 20 hrs by serial dilution method; type: functional
Staphylococcus aureus [2] = test: Antimicrobial activity against Staphylococcus aureus ATCC 12600 after 17 to 20 hrs by serial dilution method; type: functional
Priestia megaterium = test: Binding affinity to Bacillus megaterium pHis1525 DNA at 25 to 50 ug/ml after 30 mins by agarose gel electrophoresis
[3] = Cytotoxicity in human erythrocytes assessed as hemolysis at 250 ug/ml after 1 hr relative to control; type: cell-based, Erythrocyte; conditions: read-out: Activity
Escherichia coli [4] = test: Antimicrobial activity against Escherichia coli ATCC 25922 assessed as disruption of membrane integrity measured as PI dye influx at 50 ug/ml after 20 mins by fluorescence microscopy; type: functional, organism-based
Staphylococcus aureus [5] = test: Antimicrobial activity against Staphylococcus aureus ATCC 12600 assessed as disruption of membrane integrity measured as PI dye influx at 250 ug/ml after 20 mins by fluorescence microscopy; type: functional, organism-based
Staphylococcus aureus [6] = test: Antimicrobial activity against Staphylococcus aureus ATCC 12600 assessed as disruption of membrane integrity measured as PI dye influx at 50 ug/ml after 20 mins by fluorescence microscopy; type: functional, organism-based
[7] = Cytotoxicity against human TZM-b1 cells assessed as survival at 40 ug/ml after 2 hrs by flow cytometry; type: cell-based; conditions: read-out: Survival
Escherichia coli [8] = test: Antimicrobial activity against Escherichia coli ATCC 25922 assessed as disruption of membrane integrity measured as PI dye influx at 250 ug/ml after 20 mins by fluorescence microscopy; type: functional
[9] = Cytotoxicity against human TZM-b1 cells assessed as cell death at 40 ug/ml after 2 hrs by flow cytometry (reference value: 0 to 0.20 %); type: cell-based; conditions: tzm-b1, 2 h
[10] = Cytotoxicity against human TZM-b1 cells assessed as cell death at 40 ug/ml after 1 hr by flow cytometry (reference value: 0 to 0.20 %); type: cell-based; conditions: tzm-b1, 1 h
Staphylococcus aureus [11] = test: Antimicrobial activity against Staphylococcus aureus ATCC 12600 assessed as cell death at 40 ug/ml after 1 hr by flow cytometry; type: functional
[12] = Cytotoxicity against human TZM-b1 cells assessed as cell death at 125 ug/ml after 48 hrs by MTT assay; type: cell-based; conditions: tzm-b1, 48 h
[13] = Cytotoxicity against human TZM-b1 cells assessed as cell death after 48 hrs by MTT assay; type: cell-based; conditions: tzm-b1, 48 h
[14] = Cytotoxicity in human erythrocytes assessed as hemolysis at 125 ug/ml after 1 hr relative to control; type: cell-based, Erythrocyte; conditions: read-out: Activity
[15] = Cytotoxicity against human TZM-b1 cells assessed as cell death at 500 ug/ml after 48 hrs by MTT assay; type: cell-based; conditions: tzm-b1, 48 h

| Compound | MIC (Escherichia coli [1]) [µg/mL] | MIC (Candida albicans) [µg/mL] | MIC (Staphylococcus aureus [2]) [µg/mL] | further results |
| --- | --- | --- | --- | --- |
| CCCCCCCCCC(=O)N[C@@H](CCCCN)C(=O)N[C@@H](Cc1c[nH]c2ccccc12)C(=O)N[C@@H](CCCCN)C(=O)N[C@@H](Cc1c[nH]c2ccccc12)C(N)=O (Decanoyl-KWKW-NH2) | 7.8 (≈ 9.75 µM) | 31.2 (≈ 39 µM) | 7.8 (≈ 9.75 µM) | Activity (Priestia megaterium): Active |
| CCCCCCCCCC(=O)N[C@@H](CCCCN)C(=O)N[C@@H](Cc1c[nH]c2ccccc12)C(=O)N[C@@H](CCCCN)C(N)=O (Decanoyl-Lys-Trp-Lys-NH2) | > 31.2 | > 62.5 | 31.2 (≈ 50.8 µM) | hemolysis at 1 h, 250 ug/ml [3]: < 10% |
| CCCCCCCCCC(=O)N[C@@H](CCCNC(=N)N)C(=O)N[C@H](C(=O)N[C@@H](CCCCN)C(=O)N[C@@H](Cc1c[nH]c2ccccc12)C(=O)N[C@@H](CCCCN)C(N)=O)[C@@H](C)CC (Decanoyl-RIKWK-NH2) | 15.6 (≈ 17.7 µM) | > 62.5 | 7.8 (≈ 8.83 µM) | Activity (Escherichia coli [4]): Active; hemolysis at 1 h, 250 ug/ml [3]: < 10%; Activity (Staphylococcus aureus [5]): Active; Activity (Staphylococcus aureus [6]): Active; viability at 2 h, 40 ug/ml [7]: > 99%; Activity (Priestia megaterium): inactive; Activity (Escherichia coli [8]): Active; Activity [9]: 0.083%; Activity [10]: 0.074%; Activity (Staphylococcus aureus [11]): >95% |
| CCCCCCCCCC(=O)N[C@@H](CCCNC(=N)N)C(=O)N[C@H](C(=O)N[C@@H](CCCCN)C(=O)N[C@@H](Cc1c[nH]c2ccccc12)C(=O)N[C@@H](Cc1c[nH]c2ccccc12)C(=O)N[C@@H](CCCCN)C(N)=O)[C@@H](C)CC (Decanoyl-RIKWWK-NH2) | 7.8 (≈ 7.29 µM) | > 62.5 | 3.9 (≈ 3.65 µM) | Activity (Priestia megaterium): Active |
| CCCCCCCCCC(=O)N[C@@H](CCCNC(=N)N)C(=O)N[C@@H](CCCCN)C(=O)N[C@@H](Cc1c[nH]c2ccccc12)C(=O)N[C@@H](Cc1c[nH]c2ccccc12)C(=O)N[C@@H](CCCCN)C(N)=O (Decanoyl-RKWWK-NH2) | 3.9 (≈ 4.08 µM) | 15.6 (≈ 16.3 µM) | 3.9 (≈ 4.08 µM) | Activity [12]: Toxic; Activity [13]: Toxic; Activity (Escherichia coli [4]): Active; Activity (Staphylococcus aureus [5]): Active; Activity (Staphylococcus aureus [6]): Active; viability at 2 h, 40 ug/ml [7]: > 99%; Activity (Priestia megaterium): Active; CC50 (Escherichia coli [8]; ATCC 25922, 20 min): 115 µg/mL (≈ 120 µM); Activity [9]: 0.128%; hemolysis at 1 h, 125 ug/ml [14]: < 10%; Activity [10]: 0.072%; Activity (Staphylococcus aureus [11]): >95% |
| CCCCCCCCCCCCCC(=O)N[C@@H](CCCCN)C(=O)N[C@@H](Cc1c[nH]c2ccccc12)C(=O)N[C@@H](CCCCN)C(=O)N[C@@H](Cc1c[nH]c2ccccc12)C(N)=O (Myristoyl-KWKW-NH2) | 7.8 (≈ 9.11 µM) | > 62.5 | 3.9 (≈ 4.56 µM) | hemolysis at 1 h, 125 ug/ml [14]: 17% |
| CCCCCCCCCCCCCC(=O)N[C@@H](CCCCN)C(=O)N[C@@H](Cc1c[nH]c2ccccc12)C(=O)N[C@@H](Cc1c[nH]c2ccccc12)C(=O)N[C@@H](CCCCN)C(N)=O (Myristoyl-KWWK-NH2) | 7.8 (≈ 9.11 µM) | 15.6 (≈ 18.2 µM) | 3.9 (≈ 4.56 µM) | hemolysis at 1 h, 125 ug/ml [14]: 56% |
| CCCCCCCCCCCCCC(=O)N[C@@H](CCCCN)C(=O)N[C@@H](Cc1c[nH]c2ccccc12)C(=O)N[C@@H](CCCCN)C(N)=O (Myristoyl-Lys-Trp-Lys-NH2) | 7.8 (≈ 11.6 µM) | > 62.5 | 7.8 (≈ 11.6 µM) | hemolysis at 1 h, 250 ug/ml [3]: 19%; hemolysis at 1 h, 125 ug/ml [14]: 11% |
| CCCCCCCCCCCCCC(=O)N[C@@H](CCCNC(=N)N)C(=O)N[C@H](C(=O)N[C@@H](CCCCN)C(=O)N[C@@H](Cc1c[nH]c2ccccc12)C(=O)N[C@@H](CCCCN)C(N)=O)[C@@H](C)CC (Myristoyl-RIKWK-NH2) | 15.6 (≈ 16.6 µM) | > 62.5 | 15.6 (≈ 16.6 µM) | hemolysis at 1 h, 250 ug/ml [3]: 20% |
| CCCCCCCCCCCCCCCCCC(=O)N[C@@H](CCCCN)C(=O)N[C@H](C(=O)N[C@@H](CCCNC(=N)N)C(=O)N[C@@H](Cc1c[nH]c2ccccc12)C(=O)N[C@@H](Cc1c[nH]c2ccccc12)C(=O)N[C@@H](CCCNC(=N)N)C(N)=O)[C@@H](C)CC (Stearoyl-KIRWWR-NH2) | > 31.2 | > 62.5 | > 31.2 |  |
| CCCCCCCCCCCCCCCCCC(=O)N[C@@H](CCCCN)C(=O)N[C@H](C(=O)N[C@@H](Cc1c[nH]c2ccccc12)C(=O)N[C@@H](Cc1c[nH]c2ccccc12)C(=O)N[C@@H](CCCCN)C(N)=O)[C@@H](C)CC (Stearoyl-KIWWK-NH2) | > 31.2 | > 62.5 | > 31.2 |  |
| CCCCCCCCCCCCCCCCCC(=O)N[C@@H](CCCCN)C(=O)N[C@@H](CCCCN)C(=O)N[C@H](C(=O)N[C@@H](CCCNC(=N)N)C(=O)N[C@@H](Cc1c[nH]c2ccccc12)C(=O)N[C@@H](CCCNC(=N)N)C(N)=O)[C@@H](C)CC (Stearoyl-KKIRWR-NH2) | > 31.2 | > 62.5 | 15.6 (≈ 13.5 µM) |  |
| CCCCCCCCCCCCCCCCCC(=O)N[C@@H](CCCCN)C(=O)N[C@@H](CCCCN)C(=O)N[C@@H](Cc1c[nH]c2ccccc12)C(=O)N[C@@H](CCCCN)C(N)=O (Stearoyl-KKWK-NH2) | 31.2 (≈ 36.5 µM) | 31.2 (≈ 36.5 µM) | 31.2 (≈ 36.5 µM) |  |
| CCCCCCCCCCCCCCCCCC(=O)N[C@@H](CCCCN)C(=O)N[C@@H](CCCCN)C(=O)N[C@@H](Cc1c[nH]c2ccccc12)C(=O)N[C@@H](Cc1c[nH]c2ccccc12)C(N)=O (Stearoyl-KKWW-NH2) | > 31.2 | > 62.5 | > 31.2 |  |
| CCCCCCCCCCCCCCCCCC(=O)N[C@@H](CCCCN)C(=O)N[C@@H](CCCNC(=N)N)C(=O)N[C@H](C(=O)N[C@@H](Cc1c[nH]c2ccccc12)C(=O)N[C@@H](Cc1c[nH]c2ccccc12)C(=O)N[C@@H](CCCNC(=N)N)C(N)=O)[C@@H](C)CC (Stearoyl-KRIWWR-NH2) | > 31.2 | > 62.5 | 15.6 (≈ 12.9 µM) |  |
| CCCCCCCCCCCCCCCCCC(=O)N[C@@H](CCCCN)C(=O)N[C@@H](Cc1c[nH]c2ccccc12)C(=O)N[C@@H](CCCCN)C(=O)N[C@@H](Cc1c[nH]c2ccccc12)C(N)=O (Stearoyl-KWKW-NH2) | > 31.2 | > 62.5 | > 31.2 |  |
| CCCCCCCCCCCCCCCCCC(=O)N[C@@H](CCCCN)C(=O)N[C@@H](Cc1c[nH]c2ccccc12)C(=O)N[C@@H](Cc1c[nH]c2ccccc12)C(=O)N[C@@H](CCCCN)C(N)=O (Stearoyl-KWWK-NH2) | > 31.2 | > 62.5 | > 31.2 |  |
| CCCCCCCCCCCCCCCCCC(=O)N[C@@H](CCCCN)C(=O)N[C@@H](Cc1c[nH]c2ccccc12)C(=O)N[C@@H](CCCCN)C(N)=O (Stearoyl-Lys-Trp-Lys-NH2) | > 31.2 | > 62.5 | 31.2 (≈ 43 µM) |  |
| CCCCCCCCCCCCCCCCCC(=O)N[C@@H](CCCNC(=N)N)C(=O)N[C@H](C(=O)N[C@@H](CCCCN)C(=O)N[C@@H](Cc1c[nH]c2ccccc12)C(=O)N[C@@H](CCCCN)C(N)=O)[C@@H](C)CC (Stearoyl-RIKWK-NH2) | > 31.2 | > 62.5 | > 31.2 |  |
| CCCCCCCCCCCCCCCCCC(=O)N[C@@H](CCCNC(=N)N)C(=O)N[C@H](C(=O)N[C@@H](CCCCN)C(=O)N[C@@H](Cc1c[nH]c2ccccc12)C(=O)N[C@@H](Cc1c[nH]c2ccccc12)C(=O)N[C@@H](CCCCN)C(N)=O)[C@@H](C)CC (Stearoyl-RIKWWK-NH2) | > 31.2 | > 62.5 | 31.2 (≈ 26.4 µM) |  |
| CCCCCCCCCCCCCCCCCC(=O)N[C@@H](CCCNC(=N)N)C(=O)N[C@@H](CCCCN)C(=O)N[C@@H](Cc1c[nH]c2ccccc12)C(=O)N[C@@H](Cc1c[nH]c2ccccc12)C(=O)N[C@@H](CCCCN)C(N)=O (Stearoyl-RKWWK-NH2) | 125 (≈ 117 µM) | > 62.5 | 31.2 (≈ 29.2 µM) |  |
| CCCCCCCCCCCCCCCCCC(=O)N[C@@H](CCCNC(=N)N)C(=O)N[C@@H](Cc1c[nH]c2ccccc12)C(=O)N[C@@H](CCCNC(=N)N)C(=O)N[C@@H](Cc1c[nH]c2ccccc12)C(N)=O (Stearoyl-RWRW-NH2) | > 31.2 | > 62.5 | > 31.2 |  |
| CCCCCCCCCCCCCCCCCC(=O)N[C@@H](CCCNC(=N)N)C(=O)N[C@@H](Cc1c[nH]c2ccccc12)C(=O)N[C@@H](Cc1c[nH]c2ccccc12)C(=O)N[C@@H](CCCNC(=N)N)C(N)=O (Stearoyl-RWWR-NH2) | > 31.2 | > 62.5 | 31.2 (≈ 32.2 µM) |  |
| H-RKWWK-NH2 | > 62.5 |  | 62.5 | Activity [15]: Non-toxic |
